These results are taken from patent US20230192608A1, “WATER-SOLUBLE, MODIFIED AMINO ACID DERIVATIVES FOR TREATMENT OF NEUROLOGICAL DISEASES, AND SELECTED PSYCHIATRIC DISORDERS” (Uniwersytet Jagiellonski, priority 2020, published 2023).

Molecules are shown by their SMILES. Marks after values point to notes of the source that are not given here.

Data set [1] deals with male white Swiss mice (CD-1). The data set is described as follows: Subcutaneous pentylenetetrazole test (scPTZ), screening. The class given is in vivo. To be noted: 100 mg/kg intraperitoneal, time point 0.5 h. The protocol:
(§1) The studies were carried out on male white Swiss mice (CD-1) weighing 18-26 g. All procedures were performed in accordance with the applicable Polish and international guidelines for the ethics of animal research, after obtaining of the appropriate institutional consent. […] Screening tests were performed in groups consisted of 4 mice. All tests were performed according to the procedures described in the specialist literature: maximal electroshock test (MES) (Kamiński et al. Bioorg. Med. Chem. 2015, 23, 2548-2561; Castel-Branco et al. Pharmacol. 2009, 31, 101-106, Riban et al. Neurosci. 2002, 112, 101-111); psychomotor seizure test (6 Hz, 32 mA) (Barton et al. Epilepsy Res. 2001, 47, 217-227; Wojda et al. Epilepsy Res. 2009, 86, 163-174); subcutaneous pentylenetetrazole test (scPTZ) (Ferreri et al. Pharmacol. Biochem. Behav. 2004, 77, 85-94).

The nature of data set [2]: Water solubility test at 25° C. per 1 gram of compound (European Pharmacopoeia 10.0 / Polish Pharmacopoeia XII). Particulars: for The volume of water required for dissolution of 1 g of the substance at 25° C.: 1 g of compound, maximum volume of water used 100 mL; for Matching term (solubility in water, pharmacopoeial terminology): European Pharmacopoeia 10.0 / Polish Pharmacopoeia XII.

The test system of data set [3] is male white Swiss mice (CD-1). The data set is described as follows: Psychomotor seizure test (6 Hz, 32 mA), screening. To be noted: 100 mg/kg intraperitoneal, time point 0.5 h. The class given is in vivo. The protocol: as §1
The test system of data set [4] is male white Swiss mice (CD-1). As to the kind of experiment: Maximal electroshock test (MES), screening. The data set is classed as in vivo. Particulars: 100 mg/kg intraperitoneal, time point 0.5 h. The protocol:
as §1
In general terms: Protection in the maximal electroshock model is a classic sign of anticonvulsant action.

Data set [5] relates to male white Swiss mice (CD-1). The data set is described as follows: Anticonvulsant screening summarised over MES, scPTZ and 6 Hz (32 mA) models. The class given is in vivo. Particulars: screening data of Table 3, 100 mg/kg intraperitoneal. The protocol: as §1
These models are recognized as the most important and widely used pharmacological tests allowing the identification of candidates for new antiepileptic drugs. […] This is crucial in situations requiring immediate intervention to stop seizures, including, e.g status epilpepticus, which is considered as a life-threatening situation.

Data set [6] relates to male white Swiss mice (CD-1). Particulars: model AED, comparison; cited from earlier work.
Data set [7] relates to male white Swiss mice (CD-1). Particulars: model AED, comparison; cited from earlier work. The source holds these as a separate data set.

On to `CC(C(=O)NCc1ccccc1)N1C(=O)CCC1=O` (racemic) [(2R,S)-1, reference compound], for which the “scPTZ: number of mice protected/number of mice tested” value in data set [1] is reported as 2/4. For the same compound, in data set [2], the “The volume of water required for dissolution of 1 g of the substance at 25° C.” value (“The volume of water required” for short) is recorded as >100^c mL and the “Matching term (solubility in water, pharmacopoeial terminology)” value was “Slightly soluble”. The “6 Hz (32 mA): number of mice protected/number of mice tested” value in data set [3] is recorded as 3/4. In addition, the “MES: number of mice protected/number of mice tested” value in data set [4] was 3/4.
On to `CC(C(=O)NCc1ccccc1F)N1C(=O)CCC1=O` (racemic) [(2R,S)-2, reference compound], for which the “scPTZ: number of mice protected/number of mice tested” value in data set [1] was 3/4. In addition, in data set [2], the “The volume of water required” value was >100^c mL and the “Matching term (solubility in water, pharmacopoeial terminology)” value is on record as “Slightly soluble”. For the same compound, in data set [3], the “6 Hz (32 mA): number of mice protected/number of mice tested” value is on record as 3/4. The “MES: number of mice protected/number of mice tested” value in data set [4] is 3/4.
As to `C[C@H](C(=O)NCc1ccccc1)N1C(=O)CCC1=O` [(2R)-1, reference compound], the “scPTZ: number of mice protected/number of mice tested” value in data set [1] is recorded as 3/4. Moreover, in data set [2], the “The volume of water required” value is recorded as >100^c mL and the “Matching term (solubility in water, pharmacopoeial terminology)” value is on record as “Slightly soluble”. Moreover, the “6 Hz (32 mA): number of mice protected/number of mice tested” value in data set [3] is given as 4/4. The “MES: number of mice protected/number of mice tested” value in data set [4] is recorded as 3/4.
In the case of `C[C@H](C(=O)NCc1ccccc1F)N1C(=O)CCC1=O` [(2R)-2, reference compound], in data set [1], the “scPTZ: number of mice protected/number of mice tested” value is given as 3/4. Besides, in data set [2], the “The volume of water required” value was >100^c mL and the “Matching term (solubility in water, pharmacopoeial terminology)” value is reported as “Slightly soluble”. The “6 Hz (32 mA): number of mice protected/number of mice tested” value in data set [3] is 4/4. In addition, the “MES: number of mice protected/number of mice tested” value in data set [4] is 4/4.
As to `CC(C(=O)NCc1ccccc1F)N1CCCC1=O` [(2R,S)-4, (2R,S)-N-(2-fluorobenzyl)-2-(2-oxopyrrolidin-1-yl)propanamide], the “scPTZ: number of mice protected/number of mice tested” value in data set [1] is listed as 2/4. In data set [2], the “The volume of water required” value is on record as 30 mL and the “Matching term (solubility in water, pharmacopoeial terminology)” value is “Soluble”. Further, in data set [3], the “6 Hz (32 mA): number of mice protected/number of mice tested” value is 3/4. Moreover, the “MES: number of mice protected/number of mice tested” value in data set [4] is 3/4.
For the compound `C[C@@H](C(=O)NCc1ccccc1)N1C(=O)CCC1=O` [(2S)-1, reference compound], in data set [1], the “scPTZ: number of mice protected/number of mice tested” value is listed as 2/4. Also, in data set [2], the “The volume of water required” value is listed as >100^c mL and the “Matching term (solubility in water, pharmacopoeial terminology)” value is on record as “Slightly soluble”. Besides, the “6 Hz (32 mA): number of mice protected/number of mice tested” value in data set [3] was 4/4. In data set [4], the “MES: number of mice protected/number of mice tested” value is reported as 1/4.
For `C[C@@H](C(=O)NCc1ccccc1F)N1C(=O)CCC1=O` [(2S)-2, reference compound], in that order: 2/4, >100^c mL, “Slightly soluble”, 2/4 and 2/4.
As to `CC(C(=O)NCc1ccccc1)N1CCCC1=O` (stereo not shown) [Compound 3, N-benzyl-2-(2-oxopyrrolidin-1-yl)propanamide], the “Matching term (solubility in water, pharmacopoeial terminology)” value in data set [2] is reported as “water-soluble substances”.
For the compound `CC(C(=O)NCc1ccccc1F)N1CCCC1=O` (stereo not shown) [Compound 4, N-(2-fluorobenzyl)-2-(2-oxopyrrolidin-1-yl)propanamide], the “Matching term (solubility in water, pharmacopoeial terminology)” value in data set [2] is listed as “water-soluble substances”.
In the case of `CC(C(=O)NCc1ccccc1)N1C(=O)CC(N(C)C)C1=O` (stereo not shown) [Compound 5, N-benzyl-2-(3-(dimethylamino)-2,5-dioxopyrrolidin-1-yl)propanamide], in data set [2], the “Matching term (solubility in water, pharmacopoeial terminology)” value is “substances easily soluble in water”.
On the same count and under the same terms, to `CC(C(=O)NCc1ccccc1F)N1C(=O)CC(N(C)C)C1=O` (stereo not shown) [Compound 6] belongs “substances easily soluble in water”.
As for `C[C@H](C(=O)NCc1ccccc1)N1CCCC1=O` [Compound (2R)-3, (2R)-N-benzyl-2-(2-oxopyrrolidin-1-yl)propanamide], the “scPTZ: number of mice protected/number of mice tested” value in data set [1] was 3/4. Moreover, in data set [2], the “The volume of water required” value is given as 25 mL and the “Matching term (solubility in water, pharmacopoeial terminology)” value is recorded as “Soluble”. Besides, in data set [3], the “6 Hz (32 mA): number of mice protected/number of mice tested” value is on record as 4/4. Also, in data set [5], the “Anticonvulsant activity (in words)” value is “potent anticonvulsant activity”. The “MES: number of mice protected/number of mice tested” value in data set [4] is given as 4/4.
Turning to `C[C@H](C(=O)NCc1ccccc1F)N1CCCC1=O` [Compound (2R)-4, (2R)-N-(2-fluorobenzyl)-2-(2-oxopyrrolidin-1-yl)propanamide], the “scPTZ: number of mice protected/number of mice tested” value in data set [1] is recorded as 3/4. Besides, in data set [2], the “The volume of water required” value was 30 mL and the “Matching term (solubility in water, pharmacopoeial terminology)” value is “Soluble”. Further, the “6 Hz (32 mA): number of mice protected/number of mice tested” value in data set [3] is listed as 4/4. Also, in data set [5], the “Anticonvulsant activity (in words)” value is given as “potent anticonvulsant activity”. In data set [4], the “MES: number of mice protected/number of mice tested” value is 4/4.
Take `C[C@H](C(=O)NCc1ccccc1)N1C(=O)CC(N(C)C)C1=O.Cl` (stereo partly drawn) [Compound (2R)-5 × HCl, (2R)-N-benzyl-2-(3-(dimethylamino)-2,5-dioxopyrrolidin-1-yl)propanamide hydrochloride]: the “Anticonvulsant activity (in words)” value in data set [5] is “potent anticonvulsant activity”.
Consider `C[C@H](C(=O)NCc1ccccc1F)N1C(=O)CC(N(C)C)C1=O.Cl` (stereo partly drawn) [Compound (2R)-6 × HCl, (2R)-2-(3-(dimethylamino)-2,5-dioxopyrrolidin-1-yl)-N-(2-fluorobenzyl)propanamide hydrochloride], for which, in data set [5], the “Anticonvulsant activity (in words)” value was “potent anticonvulsant activity”.
With `CC(C(=O)NCc1ccccc1)N1CCCC1=O` [Compound (2R,S)-3, (2R,S)-N-benzyl-2-(2-oxopyrrolidin-1-yl)propanamide], in data set [1], the “scPTZ: number of mice protected/number of mice tested” value was 2/4. In data set [2], the “The volume of water required” value is given as 25 mL and the “Matching term (solubility in water, pharmacopoeial terminology)” value is listed as “Soluble”. Also, the “6 Hz (32 mA): number of mice protected/number of mice tested” value in data set [3] was 4/4. In data set [4], the “MES: number of mice protected/number of mice tested” value is given as 3/4.
For the compound `C[C@@H](C(=O)NCc1ccccc1)N1CCCC1=O` [Compound (2S)-3, (2S)-N-benzyl-2-(2-oxopyrrolidin-1-yl)propanamide], the “scPTZ: number of mice protected/number of mice tested” value in data set [1] is recorded as 2/4. Besides, in data set [2], the “The volume of water required” value is on record as 25 mL and the “Matching term (solubility in water, pharmacopoeial terminology)” value is “Soluble”. For the same compound, in data set [3], the “6 Hz (32 mA): number of mice protected/number of mice tested” value is recorded as 2/4. Moreover, the “MES: number of mice protected/number of mice tested” value in data set [4] is 2/4.
Take `C[C@@H](C(=O)NCc1ccccc1F)N1CCCC1=O` [Compound (2S)-4, (2S)-N-(2-fluorobenzyl)-2-(2-oxopyrrolidin-1-yl)propanamide]: the “scPTZ: number of mice protected/number of mice tested” value in data set [1] was 2/4. For the same compound, in data set [2], the “The volume of water required” value is 30 mL and the “Matching term (solubility in water, pharmacopoeial terminology)” value is on record as “Soluble”. Further, in data set [3], the “6 Hz (32 mA): number of mice protected/number of mice tested” value was 2/4. Moreover, the “MES: number of mice protected/number of mice tested” value in data set [4] is recorded as 2/4.
With `CC[C@@H](C(N)=O)N1CCCC1=O` [levetiracetam], the “Activity in scPTZ test (in words)” value in data set [6] was “inactive”. In data set [7], the “Activity in MES test (in words)” value is “inactive”.
